Among the data in PubChem BioAssay (NCI) are GI50 and TGI values, retold here.

Test systems include A549 NSCLC; BT-549 breast; HOP-92 NSCLC; MCF7 breast; OVCAR-3 ovarian; OVCAR-5 ovarian; PC-3 prostate; SNB-19 CNS; SNB-75 CNS; SR leukemia.
Assay in all cases: DTP human tumour cell line panel, 48 h

Several values for one entry are separate records, joined by “and”; a condition that tells them apart may be missing. Identical values can stand only once.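 All cell lines were grown in 96-well plates and treated with compound for 48 hours. The concentration for 50% growth inhibition is given as GI50. TGI denotes the concentration required for complete inhibition of growth.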 Bounds are passed on as bounds.

As a reminder, the GI50 is the concentration giving 50% growth inhibition. Broadly, the TGI is the concentration at which net growth stops. Lower therefore signals greater sensitivity of the cells.

On to `C/C(=C(/c1ccc(O)cc1)c1ccc(Cl)cc1)c1ccccc1`, for which the GI50 was 0.723 µM with A549 NSCLC; 0.575 µM in the test with BT-549 breast; 0.448 µM in the test with HOP-92 NSCLC; 0.767 µM in the test on MCF7 breast; 0.552 µM with OVCAR-3 ovarian; 1.17 µM in the test with OVCAR-5 ovarian. The GI50 is 0.721 µM in the test on PC-3 prostate, 0.76 µM in the test on SNB-19 CNS, 0.629 µM in the test with SNB-75 CNS and 0.92 µM with SR leukemia. In addition, the TGI was 2.53 µM with A549 NSCLC; 1.53 µM in the test with BT-549 breast; 1.09 µM in the test on HOP-92 NSCLC; 2.07 µM with MCF7 breast; 1.31 µM in the test on OVCAR-3 ovarian; 2.67 µM in the test with OVCAR-5 ovarian. Besides, the TGI in the test with PC-3 prostate was 2.56 µM; in the test on SNB-19 CNS, 2.18 µM; in the test with SNB-75 CNS it was 1.96 µM; with SR leukemia, 7.98 µM.

For the compound `C[C@]12CC[C@@H](OC(=O)N(CCCl)N=O)C[C@@H]1CC[C@@H]1[C@@H]2CC[C@]2(C)C(=O)CC[C@@H]12`, the GI50 is 0.73 µM with A549 NSCLC; 14.2 µM in the test on BT-549 breast; 6.79 µM in the test on HOP-92 NSCLC; 1.38 µM in the test with MCF7 breast; 5.76 µM in the test with OVCAR-3 ovarian; 27.2 µM in the test on OVCAR-5 ovarian. The GI50 is 11.5 µM in the test on PC-3 prostate, 0.526 µM in the test with SNB-19 CNS, 2.74 µM with SNB-75 CNS and 0.0156 µM with SR leukemia. The total growth inhibition concentration (TGI) with A549 NSCLC worked out at 4.69 µM; in the test on BT-549 breast it was 33.2 µM; in the test on HOP-92 NSCLC, 35.9 µM; in the test on MCF7 breast, 19.2 µM; in the test with OVCAR-3 ovarian it was 19.9 µM; in the test on OVCAR-5 ovarian, 57.7 µM. The TGI with PC-3 prostate is more than 96 µM; with SNB-19 CNS, 26 µM; with SNB-75 CNS, 30.5 µM; in the test on SR leukemia, 6.82 µM.

Consider `CCCCCCNC(=O)Oc1ccc(/C(=C(/C)Cc2ccc(OC)cc2)c2ccc(OCCN(C)C)cc2)cc1`, for which the GI50 with A549 NSCLC is 5.65 µM; in the test with BT-549 breast it was 5.11 µM; with HOP-92 NSCLC it was 3.49 µM; in the test with MCF7 breast, 1.29 µM; with OVCAR-3 ovarian it was 4.93 µM; with OVCAR-5 ovarian it was 4.58 µM. The GI50 is 1.66 µM with PC-3 prostate, 5.6 µM in the test with SNB-19 CNS, 3.99 µM in the test on SNB-75 CNS and 1.32 µM in the test on SR leukemia. In addition, the TGI in the test with A549 NSCLC is 10.8 µM; in the test on BT-549 breast it was 9.86 µM; in the test on HOP-92 NSCLC it was 7.9 µM; in the test with MCF7 breast, 6.98 µM; with OVCAR-3 ovarian, 9.79 µM; in the test with OVCAR-5 ovarian, 8.99 µM. In addition, the TGI is 5.96 µM in the test on PC-3 prostate, 10.4 µM with SNB-19 CNS, 8.53 µM with SNB-75 CNS and 6.55 µM with SR leukemia.

In the case of `Oc1c(Cl)cc(Cl)cc1Sc1cc(Cl)cc(Cl)c1O`, the GI50 is 3.37 µM and 3.03 µM in the test on A549 NSCLC; 2.81 µM in the test with BT-549 breast; 1.65 µM with HOP-92 NSCLC; 3.06 µM and 2.88 µM in the test with MCF7 breast; 3.66 µM and 2.96 µM with OVCAR-3 ovarian; 4.37 µM and 4.04 µM in the test with OVCAR-5 ovarian. Further, the GI50 in the test with PC-3 prostate was 3.21 µM and 2.89 µM; in the test on SNB-19 CNS, 4.84 µM and 3.23 µM; in the test with SNB-75 CNS, 3.47 µM and 2.57 µM; with SR leukemia, 3.09 µM and 4.96 µM. Also, the concentration for total growth inhibition (TGI) in the test on A549 NSCLC was 11.9 µM and 10.6 µM; in the test on BT-549 breast, 8.09 µM; in the test with HOP-92 NSCLC, 4.47 µM and 4.65 µM; with MCF7 breast, 10.5 µM and 10.2 µM; in the test with OVCAR-3 ovarian, 11.3 µM and 10.2 µM; in the test on OVCAR-5 ovarian it was 17.9 µM and 14.2 µM. Moreover, the TGI in the test with PC-3 prostate is 10.5 µM and 12.9 µM; in the test with SNB-19 CNS it was 32.2 µM and 14.2 µM; in the test on SNB-75 CNS, 14 µM and 7.61 µM; with SR leukemia it was 13.6 µM and > 100 µM.

With `C/C(=N\NC(=S)N1CCN(c2ccccn2)CC1)c1nccs1`, the TGI in the test with A549 NSCLC amounted to 13.3 µM; in the test with BT-549 breast, 18 µM; in the test on MCF7 breast it was 18.3 µM; in the test on OVCAR-5 ovarian, 27.4 µM; in the test with PC-3 prostate, 17.4 µM; in the test with SNB-19 CNS it was 32.8 µM. Further, the TGI with SNB-75 CNS was determined as 19.4 µM; with SR leukemia it was 4.63 µM. Besides, the GI50 in the test on HOP-92 NSCLC was 0.017 µM; in the test on MCF7 breast, 0.377 µM; with OVCAR-3 ovarian it was 0.00821 µM and < 0.0205 µM; with OVCAR-5 ovarian, 0.0544 µM; with PC-3 prostate, 0.525 µM; with SR leukemia, 0.236 µM.

For `COC(=O)c1ccc2c(c1)C(=O)c1c-2n(CCCN)c(=O)c2cc(OC)c(OC)cc12`, the GI50 in the test on A549 NSCLC was 7.49 µM; in the test on BT-549 breast, 17.1 µM; in the test on HOP-92 NSCLC, 14.2 µM; in the test on MCF7 breast, 8.79 µM; in the test with OVCAR-3 ovarian, 10.2 µM; in the test on OVCAR-5 ovarian, 18.8 µM. For the same compound, the GI50 is 8.73 µM in the test with PC-3 prostate, 19.5 µM in the test with SNB-19 CNS, 16.5 µM in the test with SNB-75 CNS and 1.98 µM in the test with SR leukemia. Besides, the TGI in the test on A549 NSCLC is 27.2 µM; in the test on BT-549 breast, 35.4 µM; in the test with HOP-92 NSCLC, 32.1 µM; with MCF7 breast, 29.3 µM; with OVCAR-3 ovarian it was more than 56.8 µM; with OVCAR-5 ovarian, 33.9 µM. The TGI is more than 51.4 µM in the test with PC-3 prostate, 42.6 µM with SNB-19 CNS, 32.9 µM in the test on SNB-75 CNS and 4.39 µM in the test on SR leukemia.

With `CC(=O)c1cc(-c2ccccc2N)n(-c2ccc3c(c2)OCO3)c1C`, the GI50 in the test with A549 NSCLC was 0.313 µM; in the test with BT-549 breast, 0.575 µM; in the test with HOP-92 NSCLC, 0.149 µM; in the test with MCF7 breast, 0.32 µM; in the test on OVCAR-3 ovarian it was 0.066 µM; in the test on OVCAR-5 ovarian it was 0.268 µM. For the same compound, the GI50 is 0.317 µM in the test with PC-3 prostate, 0.299 µM with SNB-19 CNS, 0.255 µM in the test with SNB-75 CNS and 0.223 µM in the test on SR leukemia. Moreover, the TGI is more than 100 µM in the test on A549 NSCLC; 9.9 µM in the test on BT-549 breast; 24.8 µM with HOP-92 NSCLC; more than 100 µM in the test with MCF7 breast; 0.537 µM in the test with OVCAR-3 ovarian; more than 100 µM in the test on OVCAR-5 ovarian. Besides, the total growth inhibition concentration (TGI) in the test on PC-3 prostate was more than 100 µM; in the test on SNB-19 CNS, more than 100 µM; in the test on SNB-75 CNS, more than 93.9 µM; in the test with SR leukemia, 19.1 µM.
